Experimental data as given in patent US20200216417A1, “INHIBITORS OF FIBROBLAST ACTIVATION PROTEIN” (Praxis Biotech LLC, priority 2019, published 2020).
Where two headings read alike, the source gives them in different places.

Tests used:
[1] = molecular target: T1, recombinant human FAPα (rhFAPα) (Homo sapiens, UniProt Q12884); test: FAPα enzymatic exopeptidase (dipeptidase) activity assay, Z-Gly-Pro-AMC; assay type: biochemical
T1 construct: purchased R&S system (so in the source)
T1 sequence (Q12884 1-760): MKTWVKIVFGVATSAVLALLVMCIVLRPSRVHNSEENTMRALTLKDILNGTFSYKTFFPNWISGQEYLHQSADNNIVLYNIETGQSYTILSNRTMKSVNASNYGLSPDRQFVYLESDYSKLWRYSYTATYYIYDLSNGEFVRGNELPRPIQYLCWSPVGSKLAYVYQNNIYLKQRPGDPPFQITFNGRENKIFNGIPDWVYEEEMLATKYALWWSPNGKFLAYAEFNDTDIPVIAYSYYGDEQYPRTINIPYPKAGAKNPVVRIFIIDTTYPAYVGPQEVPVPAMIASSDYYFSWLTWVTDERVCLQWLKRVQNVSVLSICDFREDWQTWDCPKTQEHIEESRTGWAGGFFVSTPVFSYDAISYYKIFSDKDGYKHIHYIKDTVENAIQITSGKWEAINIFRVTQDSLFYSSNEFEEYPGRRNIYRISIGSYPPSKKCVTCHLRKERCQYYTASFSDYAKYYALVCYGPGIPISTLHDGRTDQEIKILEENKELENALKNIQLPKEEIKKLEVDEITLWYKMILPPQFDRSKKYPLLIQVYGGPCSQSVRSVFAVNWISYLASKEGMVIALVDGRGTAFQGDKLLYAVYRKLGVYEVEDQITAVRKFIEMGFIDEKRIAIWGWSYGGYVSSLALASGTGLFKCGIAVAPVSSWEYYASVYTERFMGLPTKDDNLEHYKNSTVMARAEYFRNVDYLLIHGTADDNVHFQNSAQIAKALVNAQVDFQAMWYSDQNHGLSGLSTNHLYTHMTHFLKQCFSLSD

[2] = molecular target: T1, recombinant human FAPα (rhFAPα); test: FAPα enzymatic endopeptidase (collagenase) activity assay, DQ collagen; assay type: biochemical; settings: Table 2, read-out: rhFAPα (endo IC50)
[3] = molecular target: T2, recombinant human DPP9 (rhDPP9) (Homo sapiens, UniProt Q86TI2); test: DPP9 inhibition assay, 10 ng rhDPP9, Tris-HCl/BSA buffer; assay type: biochemical; settings: Table 3B
T2 construct: purchased R&S system / R&D systems (both sic) 5419-SE
T2 sequence (Q86TI2 whole entry): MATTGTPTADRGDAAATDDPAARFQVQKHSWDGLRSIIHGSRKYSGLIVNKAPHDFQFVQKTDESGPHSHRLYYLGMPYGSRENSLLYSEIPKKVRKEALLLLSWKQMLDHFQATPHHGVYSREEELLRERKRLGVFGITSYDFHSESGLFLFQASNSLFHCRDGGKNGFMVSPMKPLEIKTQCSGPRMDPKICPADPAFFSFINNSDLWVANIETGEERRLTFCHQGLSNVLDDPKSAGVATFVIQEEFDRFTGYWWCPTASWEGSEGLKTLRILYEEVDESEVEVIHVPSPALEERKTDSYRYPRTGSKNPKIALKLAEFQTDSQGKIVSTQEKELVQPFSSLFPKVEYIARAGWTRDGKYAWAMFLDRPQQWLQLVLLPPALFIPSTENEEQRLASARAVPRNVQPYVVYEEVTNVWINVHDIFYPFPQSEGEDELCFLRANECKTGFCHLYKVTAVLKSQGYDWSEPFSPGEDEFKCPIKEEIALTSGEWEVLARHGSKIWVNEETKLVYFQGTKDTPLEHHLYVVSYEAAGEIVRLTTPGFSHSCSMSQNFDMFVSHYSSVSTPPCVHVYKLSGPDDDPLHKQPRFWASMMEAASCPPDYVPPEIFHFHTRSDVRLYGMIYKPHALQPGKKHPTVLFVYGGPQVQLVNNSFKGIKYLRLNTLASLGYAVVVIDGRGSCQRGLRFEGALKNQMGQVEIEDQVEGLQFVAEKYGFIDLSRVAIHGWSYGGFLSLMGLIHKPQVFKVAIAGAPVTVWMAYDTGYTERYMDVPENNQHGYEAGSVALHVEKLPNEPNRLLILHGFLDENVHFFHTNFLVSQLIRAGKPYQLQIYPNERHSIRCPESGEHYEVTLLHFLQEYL

circulating FAPα [4] = molecular target: T3, circulating FAPα (Homo sapiens, UniProt Q12884); test: Ex vivo inhibition of circulating FAPα activity from human plasma (PRXS-AMC); assay type: biochemical
T3 construct: from tissue; host or cells: human plasma (EDTA-K2) from healthy volunteers
T3 sequence (Q12884 24-760 limits assumed): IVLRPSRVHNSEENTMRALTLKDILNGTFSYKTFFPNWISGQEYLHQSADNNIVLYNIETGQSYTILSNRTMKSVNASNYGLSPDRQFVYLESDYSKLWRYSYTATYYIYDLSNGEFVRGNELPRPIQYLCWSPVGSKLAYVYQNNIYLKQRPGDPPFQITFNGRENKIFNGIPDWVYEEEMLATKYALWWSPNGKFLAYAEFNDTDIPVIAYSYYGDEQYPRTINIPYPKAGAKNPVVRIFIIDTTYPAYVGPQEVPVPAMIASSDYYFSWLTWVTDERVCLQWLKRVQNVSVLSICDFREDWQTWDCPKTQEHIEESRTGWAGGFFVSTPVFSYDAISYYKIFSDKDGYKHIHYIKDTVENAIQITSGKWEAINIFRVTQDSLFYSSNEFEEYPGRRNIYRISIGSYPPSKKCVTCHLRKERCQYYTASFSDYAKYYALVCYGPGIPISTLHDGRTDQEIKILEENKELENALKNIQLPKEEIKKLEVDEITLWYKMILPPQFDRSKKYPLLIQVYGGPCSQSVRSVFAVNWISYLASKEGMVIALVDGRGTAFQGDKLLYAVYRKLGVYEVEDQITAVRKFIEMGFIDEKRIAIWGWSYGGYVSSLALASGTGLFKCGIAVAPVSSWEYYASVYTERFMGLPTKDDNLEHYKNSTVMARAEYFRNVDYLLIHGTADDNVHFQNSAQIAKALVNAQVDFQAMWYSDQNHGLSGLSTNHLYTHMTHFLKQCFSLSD
Protocol: Human blood was obtained from healthy young volunteers. Blood samples were collected in tubes coated with EDTA-K2 by venipuncture method, mixed gently, then kept on ice and centrifuged at 2,500×g for 15 minutes at 4° C. After plasma separation, samples were stored at −80° C. in aliquots of 300 μL.
Exemplary compounds were allowed to interact with the enzyme for 15 minutes at 37° C. After pre-incubation, 50 μl of 200 μM PRXS-AMC substrate were added to the all mixtures. All reactions were carried out for 1 h at 37° C. protected from light. AMC release was detected measuring fluorescence at an excitation/emission wavelength of 380/460 nm using a Multifunction Microplate Reader. All measurements were carried out as single point.

circulating FAPα [5] = molecular target: circulating FAPα (Mesocricetus auratus, UniProt A0ABM2XF29); test: Ex vivo inhibition of circulating FAPα activity from hamster plasma (PRXS-AMC); assay type: biochemical, Golden Syrian hamster
circulating FAPα (Mesocricetus auratus, UniProt A0ABM2XF29), sequence (A0ABM2XF29 24-761 limits assumed): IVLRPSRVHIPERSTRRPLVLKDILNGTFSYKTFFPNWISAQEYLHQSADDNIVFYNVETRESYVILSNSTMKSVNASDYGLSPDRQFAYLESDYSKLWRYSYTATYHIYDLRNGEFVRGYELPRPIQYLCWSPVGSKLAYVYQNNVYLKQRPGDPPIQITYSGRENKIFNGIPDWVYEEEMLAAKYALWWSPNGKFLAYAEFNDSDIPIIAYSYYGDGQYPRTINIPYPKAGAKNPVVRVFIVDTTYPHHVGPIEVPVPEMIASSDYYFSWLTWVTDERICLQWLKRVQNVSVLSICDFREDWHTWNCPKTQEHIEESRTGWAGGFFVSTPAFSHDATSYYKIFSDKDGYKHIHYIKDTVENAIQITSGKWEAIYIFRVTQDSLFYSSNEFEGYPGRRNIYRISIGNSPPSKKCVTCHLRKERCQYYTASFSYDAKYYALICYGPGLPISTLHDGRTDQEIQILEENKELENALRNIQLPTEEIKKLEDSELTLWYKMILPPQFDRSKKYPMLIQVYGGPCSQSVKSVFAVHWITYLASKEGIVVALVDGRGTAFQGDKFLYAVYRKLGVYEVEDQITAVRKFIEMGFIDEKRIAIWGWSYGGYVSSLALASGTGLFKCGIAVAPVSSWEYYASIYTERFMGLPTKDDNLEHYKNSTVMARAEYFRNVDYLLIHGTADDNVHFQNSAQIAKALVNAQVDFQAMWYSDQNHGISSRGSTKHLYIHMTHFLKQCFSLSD
Protocol: Male Golden Syrian hamsters were provided by National Laboratory Animal Center (NLAC) in Taiwan. The animals were maintained in a hygienic environment under controlled temperature (20-24° C.) and humidity (50%-80%) with 12 hours light/dark cycles. Free access to standard lab diet [MFG (Oriental Yeast Co., Ltd. Japan)] and autoclaved tap water were granted. All aspects of this work including housing, experimentation and disposal of animals were performed in general accordance with the “Guide for the Care and Use of Laboratory Animals: Eighth Edition” (National Academies Press, Washington, D.C., 2011). In addition, the animal care and use protocol was reviewed and approved by the IACUC at Pharmacology Discovery Services Taiwan, Ltd. Immediately after the sacrifice of hamsters, blood samples were collected via terminal cardiac puncture in tubes coated with EDTA-K2, mixed gently, then kept on ice and centrifuged at 2,500×g for 15 minutes at 4° C. After plasma separation, samples were stored at −80° C. in aliquots of 300 μL. To assay exemplary compounds in hamster plasma, a similar protocol as described for human plasma was performed diluting thawed plasma 1:2 in cFAP buffer. […] AMC release was detected measuring fluorescence at an excitation/emission wavelength of 380/460 nm using a Multifunction Microplate Reader. […]

[6] = test system: human AML cell line MV4-11; test: Cytotoxicity assay in human leukemia cell lines (Cell-Titer Glo); settings: MV4-11, 48 h, read-out: MV4-11 viability IC50, μM
[7] = exopeptidase, Table 2, read-out: rhFAPα (exo IC50)
[8] = exopeptidase, Table 3A, read-out: rhFAPα (exo IC50)
[9] = read-out: rhFAPα % exo inh @ 1 μM
[10] = read-out: rhFAPα (% exo inh @ 1 μM)
[11] = exopeptidase inhibition at 1 μM test compound, Table 2, read-out: rhFAPα (% exo inh @ 1 μM)
[12] = exopeptidase inhibition at 1 μM test compound, Table 3B, read-out: rhFAPα % exo inh @ 1 μM

IC50 ([1]; Table 3B, read-out: rhFAP IC50) [nM]	IC50 [1, 7] [nM]	IC50 [1, 8] [nM]	IC50 [3] [nM]	inhibition at 1 µM [1, 11] [%]	inhibition at 1 µM [1, 12] [%]	Compound	inhibition at 1 µM [1, 9] [%]	inhibition at 1 µM [1, 10] [%]	IC50 [2] [nM]	IC50 (circulating FAPα [4]) [nM]	IC50 (circulating FAPα [5]) [nM]	IC50 [6] [µM]
< 1000	< 1000	< 1000	1000 to 10000	> 50	> 50	N#C[C@@H]1CC(F)(F)CN1C(=O)CNC(=O)c1ccncc1NC(=O)COc1ccc(Cl)c(F)c1 [Compound 5, (S)-3-(2-(4-chloro-3-fluorophenoxy)acetamido)-N-(2-(2-cyano-4,4-difluoropyrrolidin-1-yl)-2-oxoethyl)isonicotinamide]	–	–	–	–	–	–
< 1000	< 1000	< 1000	1000 to 10000	> 50	> 50	N#C[C@@H]1CC(F)(F)CN1C(=O)CNC(=O)c1ccncc1Cc1ccccc1F [Compound 7, (S)—N-(2-(2-cyano-4,4-difluoropyrrolidin-1-yl)-2-oxoethyl)-3-(2-fluorobenzyl)isonicotinamide]	–	–	–	–	–	–
< 1000	< 1000	< 1000	1000 to 10000	> 50	> 50	N#C[C@@H]1CC(F)(F)CN1C(=O)CNC(=O)c1ccncc1Cc1ccc(F)cc1 [Compound 8, (S)—N-(2-(2-cyano-4,4-difluoropyrrolidin-1-yl)-2-oxoethyl)-3-(4-fluorobenzyl)isonicotinamide]	–	–	–	–	–	–

More lines, now with the values behind:

Compound	IC50 ([1]; Table 3B, read-out: rhFAP IC50) [nM]	IC50 [1, 7] [nM]	IC50 [1, 8] [nM]	IC50 [3] [nM]	inhibition at 1 µM [1, 11] [%]	inhibition at 1 µM [1, 12] [%]	inhibition at 1 µM [1, 9] [%]	inhibition at 1 µM [1, 10] [%]	IC50 [2] [nM]	IC50 (circulating FAPα [4]) [nM]	IC50 (circulating FAPα [5]) [nM]	IC50 [6] [µM]
COc1ccc(C(=O)Nc2cnccc2C(=O)NCC(=O)N2CC(F)(F)C[C@H]2C#N)cc1 [Compound 3, (S)—N-(2-(2-cyano-4,4-difluoropyrrolidin-1-yl)-2-oxoethyl)-3-(4-methoxybenzamido)isonicotinamide]	< 1000	< 1000	< 1000	1000 to 10000	–	–	> 50	> 50	< 1000	< 1000	< 1000	–
N#C[C@@H]1CC(F)(F)CN1C(=O)CNC(=O)c1ccncc1NCc1ccc(F)cc1 [Compound 2, (S)—N-(2-(2-cyano-4,4-difluoropyrrolidin-1-yl)-2-oxoethyl)-3-((4-fluorobenzyl)amino)isonicotinamide]	< 1000	< 1000	< 1000	> 10000	> 50	> 50	–	–	–	–	–	–
N#C[C@@H]1CC(F)(F)CN1C(=O)CNC(=O)c1ccncc1/C=C/c1ccc(Cl)cc1 [Compound 9, (S,E)-3-(4-chlorostyryl)-N-(2-(2-cyano-4,4-difluoropyrrolidin-1-yl)-2-oxoethyl)isonicotinamide]	< 1000	< 1000	< 1000	< 1000	–	–	> 50	> 50	< 1000	< 1000	< 1000	> 10
